Results on 19 compounds are retold here after US20230117034A1, “PYRAZOLOTRIAZINES” (Bayer Aktiengesellschaft, priority 2019, published 2023).

The target in one assay is T1, CDK9/CycT1 (Homo sapiens, UniProt P50750).
T1 construct: Recombinant full-length His-tagged human CDK9 and CycT1; purchased Life Technologies PV4131; host or cells: insect cells
Description: CDK9/CycT1 high ATP kinase assay (TR-FRET, 2 mM ATP). The assay is classed as biochemical. The following applies: 2 mM ATP (high ATP); median; read-out: CDK9/CyclinT1, 2 mM ATP (high ATP), IC50 (median). The gist of the method: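 Full-length His-tagged human CDK9/CycT1 (insect cell, ~0.5 μg/mL) preincubated 15 min at 22 °C with compound in Tris pH 8.0, MgCl2, DTT buffer before reaction with biotinylated peptide substrate at high ATP (2 mM).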
(TR-FRET usually uses a lanthanide donor and a delayed reading to cut background.)

Assay [1] deals with MDA-MB-231, human breast cancer cells. Briefly: Proliferation assay MDA-MB-231 (crystal violet, 4 days). The following applies: MDA-MB-231 cells, median, read-out: Prolif-MDA MB-231, IC50-[mol/l] (median). It counts as cell-based. The gist of the method: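 Plated 4,000 cells/well, 10% FCS; 24 h later treated 0.01-10 µmol/L cpd (DMSO 0.1%), 4 d. Fix glutaraldehyde, stain 0.1% crystal violet pH 3.0, elute acetic acid, A595. Normalized to t0 plate/untreated; 4-param IC50.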

Assay [2] has as its target T2, CDK12 (nuclear staining in CAL-120 cells) (Homo sapiens, UniProt Q9NYV4).
T2 construct: endogenous in cells; host or cells: CAL-120 human breast cancer cells (DSMZ ACC 459)
Description: CDK12 nuclear protein level: immunofluorescence/high content analysis (CAL-120). The assay is classed as cell-based. The following applies: for DC50: CAL-120 cells, 24 h, immunofluorescence, 50% reduction of nuclear CDK12 staining intensity, median, read-out: CDK12 degradation IF, DC50- [mol/l] (median); for (IC50 CDK12 high ATP) to (Degradation DC50 CDK12) ratio: ratio of IC50 CDK12 high ATP kinase assay to DC50 CDK12 degradation (IF, CAL-120). The gist of the method:
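CAL-120 cells were treated with compound for 24 h at 37 °C, fixed with PFA and immunostained for CDK12. Nuclear CDK12 intensity was quantified by automated image analysis and normalized to DMSO and control. DC50 is the concentration giving 50% reduction of nuclear staining.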

Each structure is given as a SMILES string. Read-outs that look alike come from different tables or passages of the source.

T2 sequence (Q9NYV4 whole entry): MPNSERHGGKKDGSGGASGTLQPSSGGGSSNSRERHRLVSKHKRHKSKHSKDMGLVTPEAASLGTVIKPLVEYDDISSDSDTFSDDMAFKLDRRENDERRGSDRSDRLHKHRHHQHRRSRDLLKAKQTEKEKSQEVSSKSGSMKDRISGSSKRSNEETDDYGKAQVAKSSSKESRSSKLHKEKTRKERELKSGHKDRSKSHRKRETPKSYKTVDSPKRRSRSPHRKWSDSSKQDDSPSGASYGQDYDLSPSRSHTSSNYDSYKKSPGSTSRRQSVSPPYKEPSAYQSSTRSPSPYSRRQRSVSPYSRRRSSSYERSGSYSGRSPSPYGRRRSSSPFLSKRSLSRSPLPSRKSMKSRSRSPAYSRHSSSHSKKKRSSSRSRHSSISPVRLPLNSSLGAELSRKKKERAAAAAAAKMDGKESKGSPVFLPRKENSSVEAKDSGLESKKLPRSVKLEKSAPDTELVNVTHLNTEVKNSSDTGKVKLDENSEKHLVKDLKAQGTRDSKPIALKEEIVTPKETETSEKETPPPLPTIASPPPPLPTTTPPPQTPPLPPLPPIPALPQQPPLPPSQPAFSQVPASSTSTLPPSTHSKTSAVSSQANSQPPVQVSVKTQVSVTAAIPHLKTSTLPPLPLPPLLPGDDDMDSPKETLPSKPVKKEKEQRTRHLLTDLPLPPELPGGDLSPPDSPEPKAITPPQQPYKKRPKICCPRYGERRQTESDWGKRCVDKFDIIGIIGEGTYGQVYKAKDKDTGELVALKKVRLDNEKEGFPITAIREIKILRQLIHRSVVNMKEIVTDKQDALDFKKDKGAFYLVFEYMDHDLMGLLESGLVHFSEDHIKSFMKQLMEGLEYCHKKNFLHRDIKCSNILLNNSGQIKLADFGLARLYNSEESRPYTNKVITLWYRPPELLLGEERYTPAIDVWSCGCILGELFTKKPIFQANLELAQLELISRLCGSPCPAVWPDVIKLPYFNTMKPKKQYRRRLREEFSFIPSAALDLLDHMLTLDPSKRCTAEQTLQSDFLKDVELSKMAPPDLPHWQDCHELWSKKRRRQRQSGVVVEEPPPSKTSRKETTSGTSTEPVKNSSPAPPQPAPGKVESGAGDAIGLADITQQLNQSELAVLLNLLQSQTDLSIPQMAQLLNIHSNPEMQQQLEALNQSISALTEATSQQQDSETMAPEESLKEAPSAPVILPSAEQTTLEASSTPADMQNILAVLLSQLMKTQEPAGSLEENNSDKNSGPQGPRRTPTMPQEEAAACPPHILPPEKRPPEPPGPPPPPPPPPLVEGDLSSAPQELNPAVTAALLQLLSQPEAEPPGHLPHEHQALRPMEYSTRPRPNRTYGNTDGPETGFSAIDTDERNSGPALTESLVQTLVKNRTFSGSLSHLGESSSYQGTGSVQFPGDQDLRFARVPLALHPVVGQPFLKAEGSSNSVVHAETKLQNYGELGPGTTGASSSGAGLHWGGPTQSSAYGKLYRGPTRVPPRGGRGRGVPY
T2 sequence (O75909 whole entry partner): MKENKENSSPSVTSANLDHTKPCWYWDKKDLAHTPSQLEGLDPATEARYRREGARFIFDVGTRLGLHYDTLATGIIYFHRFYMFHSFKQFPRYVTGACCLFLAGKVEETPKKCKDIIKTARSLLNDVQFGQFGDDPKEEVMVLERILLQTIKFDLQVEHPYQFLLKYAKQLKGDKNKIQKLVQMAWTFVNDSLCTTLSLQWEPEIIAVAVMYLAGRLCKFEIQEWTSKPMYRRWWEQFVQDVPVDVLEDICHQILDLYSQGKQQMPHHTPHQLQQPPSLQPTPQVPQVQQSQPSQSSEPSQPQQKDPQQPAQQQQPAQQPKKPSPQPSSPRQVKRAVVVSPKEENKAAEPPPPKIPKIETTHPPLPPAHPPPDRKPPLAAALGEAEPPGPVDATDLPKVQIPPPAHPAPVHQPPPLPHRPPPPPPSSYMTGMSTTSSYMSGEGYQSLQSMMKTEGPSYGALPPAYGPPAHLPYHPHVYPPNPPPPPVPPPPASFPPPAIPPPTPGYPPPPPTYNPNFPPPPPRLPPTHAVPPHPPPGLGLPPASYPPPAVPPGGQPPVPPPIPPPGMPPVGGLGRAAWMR
T1 sequence (P50750 whole entry): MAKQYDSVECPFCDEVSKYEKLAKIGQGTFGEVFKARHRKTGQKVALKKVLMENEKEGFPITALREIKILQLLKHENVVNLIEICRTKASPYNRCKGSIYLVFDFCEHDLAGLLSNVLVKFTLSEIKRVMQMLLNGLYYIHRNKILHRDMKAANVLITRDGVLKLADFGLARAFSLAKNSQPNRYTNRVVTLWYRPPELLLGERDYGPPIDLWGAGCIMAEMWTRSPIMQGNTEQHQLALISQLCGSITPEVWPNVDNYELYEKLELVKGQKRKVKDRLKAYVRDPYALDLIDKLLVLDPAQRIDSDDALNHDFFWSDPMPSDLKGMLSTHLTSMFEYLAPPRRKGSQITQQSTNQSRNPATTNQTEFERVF
T1 sequence (O60563 whole entry partner): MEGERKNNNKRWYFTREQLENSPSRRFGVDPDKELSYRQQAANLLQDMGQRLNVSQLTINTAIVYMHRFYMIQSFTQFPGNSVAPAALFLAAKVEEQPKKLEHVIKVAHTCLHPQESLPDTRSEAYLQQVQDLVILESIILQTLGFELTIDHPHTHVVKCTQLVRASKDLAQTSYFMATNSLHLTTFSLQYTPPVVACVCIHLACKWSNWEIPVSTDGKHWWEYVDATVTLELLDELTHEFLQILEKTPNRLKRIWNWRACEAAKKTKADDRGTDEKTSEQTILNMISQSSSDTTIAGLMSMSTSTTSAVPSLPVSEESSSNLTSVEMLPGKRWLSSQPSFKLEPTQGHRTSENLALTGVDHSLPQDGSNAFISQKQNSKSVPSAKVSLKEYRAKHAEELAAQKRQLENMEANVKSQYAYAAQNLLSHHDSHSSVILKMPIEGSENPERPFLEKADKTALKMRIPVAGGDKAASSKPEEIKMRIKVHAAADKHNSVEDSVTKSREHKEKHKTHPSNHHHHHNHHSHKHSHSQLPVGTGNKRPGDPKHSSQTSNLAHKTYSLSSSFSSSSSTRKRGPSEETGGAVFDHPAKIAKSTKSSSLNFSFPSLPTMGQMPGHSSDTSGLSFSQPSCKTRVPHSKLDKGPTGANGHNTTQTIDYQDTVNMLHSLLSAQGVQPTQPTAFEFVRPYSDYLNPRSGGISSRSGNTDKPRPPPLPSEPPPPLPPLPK

As to `Brc1cnn2c(NCc3nc4ccccc4[nH]3)nc(N3CC4CCC(C3)O4)nc12` [Example 351, N-[(1H-benzimidazol-2-yl)methyl]-8-bromo-2-(8-oxa-3-azabicyclo[3.2.1]octan-3-yl)pyrazolo[1,5-a][1,3,5]triazin-4-amine], the IC50 on CDK9/CycT1 was > 20000 nM. Further, the IC50 in assay [1] (Homo sapiens, MDA-MB-231, 96 h) was 93.9 nM. Besides, in assay [2], the DC50 stood at 24 nM and the “(IC50 CDK12 high ATP) to (Degradation DC50 CDK12) ratio” value worked out at 390.

Regarding `CN1CCN(c2nc(NCc3nc4c(F)c(F)ccc4[nH]3)n3ncc(Cl)c3n2)CC1` [Example 358, 8-chloro-N-[(4,5-difluoro-1H-benzimidazol-2-yl)methyl]-2-(4-methylpiperazin-1-yl)pyrazolo[1,5-a][1,3,5]triazin-4-amine], at CDK9/CycT1, the IC50 is > 20000 nM. Moreover, in assay [1] (Homo sapiens, MDA-MB-231, 96 h), the IC50 worked out at 14.8 nM. Moreover, in assay [2], the DC50 came to 5.33 nM and the “(IC50 CDK12 high ATP) to (Degradation DC50 CDK12) ratio” value came out at 2182.

As for `CCNc1nc(NCc2nc(-c3ccc(C)cc3)c[nH]2)n2ncc(Br)c2n1` [Example 26, 8-bromo-N^2-ethyl-N^4-{[4-(4-methylphenyl)-1H-imidazol-2-yl]methyl}pyrazolo[1,5-a][1,3,5]triazine-2,4-diamine], the IC50 at CDK9/CycT1 came out at 8740 nM. Besides, in assay [2], the DC50 came to 58.4 nM and the “(IC50 CDK12 high ATP) to (Degradation DC50 CDK12) ratio” value is 55.

Turning to `Cc1ccnc2[nH]c(CNc3nc(N4CCN(C)CC4)nc4c(C(C)C)cnn34)nc12` [Example 32, N-[(7-methyl-3H-imidazo[4,5-b]pyridin-2-yl)methyl]-2-(4-methylpiperazin-1-yl)-8-(propan-2-yl)pyrazolo[1,5-a][1,3,5]triazin-4-amine], the IC50 at CDK9/CycT1 is > 20000 nM. Moreover, in assay [2], the DC50 came out at 7.21 nM and the “(IC50 CDK12 high ATP) to (Degradation DC50 CDK12) ratio” value is reported as 2565.

Take `CC[C@H](COC)Nc1nc(NCc2nc3ccccc3[nH]2)n2ncc(Br)c2n1` [Example 369, N4-[(1H-benzimidazol-2-yl)methyl]-8-bromo-N2-[(2R)-1-methoxybutan-2-yl]pyrazolo[1,5-a][1,3,5]triazine-2,4-diamine]: the IC50 on CDK9/CycT1 was > 20000 nM; in assay [1] (Homo sapiens, MDA-MB-231, 96 h), 297 nM. Also, the DC50 in assay [2] turned out to be 20.6 nM. For the same compound, in assay [2], the “(IC50 CDK12 high ATP) to (Degradation DC50 CDK12) ratio” value is >970.

For `Fc1cccc2[nH]c(CNc3nc(N4CC5CCC(C4)N5)nc4c(Cl)cnn34)nc12` [Example 363, 8-chloro-2-(3,8-diazabicyclo[3.2.1]octan-3-yl)-N-[(4-fluoro-1H-benzimidazol-2-yl)methyl]pyrazolo[1,5-a][1,3,5]triazin-4-amine], on CDK9/CycT1, the IC50 is > 20000 nM. Also, the IC50 in assay [1] (Homo sapiens, MDA-MB-231, 96 h) stood at 34.6 nM. Moreover, in assay [2], the DC50 is 11.9 nM and the “(IC50 CDK12 high ATP) to (Degradation DC50 CDK12) ratio” value was found to be 279.

In the case of `FC(F)(F)c1cnn2c(NCc3nc4cc(Cl)c(Cl)cc4[nH]3)nc(N3CCOCC3)nc12` [Example 332, N-[(5,6-dichloro-1H-benzimidazol-2-yl)methyl]-2-(morpholin-4-yl)-8-(trifluoromethyl)pyrazolo[1,5-a][1,3,5]triazin-4-amine], the IC50 at CDK9/CycT1 is > 20000 nM; in assay [1] (Homo sapiens, MDA-MB-231, 96 h), 11.8 nM. The DC50 in assay [2] was determined as 10.7 nM. Moreover, the “(IC50 CDK12 high ATP) to (Degradation DC50 CDK12) ratio” value in assay [2] is 18.

Regarding `Brc1cnn2c(NCc3nc4ccccc4[nH]3)nc(N3CCN4CCC3C4)nc12` (centres unmarked) [Example 350, N-[(1H-benzimidazol-2-yl)methyl]-8-bromo-2-(1,4-diazabicyclo[3.2.1]octan-4-yl)pyrazolo[1,5-a][1,3,5]triazin-4-amine], the IC50 at CDK9/CycT1 was > 20000 nM; in assay [1] (Homo sapiens, MDA-MB-231, 96 h), 13.7 nM. Besides, in assay [2], the DC50 stood at 6.55 nM. The “(IC50 CDK12 high ATP) to (Degradation DC50 CDK12) ratio” value in assay [2] stood at 1190.

Turning to `Brc1cnn2c(NCc3nc4ccccc4[nH]3)nc(N3C[C@H]4CC[C@@H]3CO4)nc12` (single isomer, unassigned) [Example 383, N-[(1H-benzimidazol-2-yl)methyl]-8-bromo-2-{[1R or S-(1R*,4R*)]-2-oxa-5-azabicyclo[2.2.2]octan-5-yl}pyrazolo[1,5-a][1,3,5]triazin-4-amine], at CDK9/CycT1, the IC50 was > 20000 nM. In assay [1] (Homo sapiens, MDA-MB-231, 96 h), the IC50 was 30 nM. In addition, in assay [2], the DC50 was 5.79 nM and the “(IC50 CDK12 high ATP) to (Degradation DC50 CDK12) ratio” value is 859.

Turning to `Brc1cnn2c(NCc3nc4ccccc4[nH]3)nc(N3C[C@H]4CC[C@@H]3CN4)nc12` (single isomer, unassigned) [Example 335, N-[(1H-benzimidazol-2-yl)methyl]-8-bromo-2-{[1R or S-(1R*,4R*)]-2,5-diazabicyclo[2.2.2]octan-2-yl}pyrazolo[1,5-a][1,3,5]triazin-4-amine], the IC50 is > 20000 nM at CDK9/CycT1 and 10.5 nM in assay [1]. For the same compound, the DC50 in assay [2] came to 8.34 nM. In addition, the “(IC50 CDK12 high ATP) to (Degradation DC50 CDK12) ratio” value in assay [2] amounted to 798.

As to `Clc1cc2nc(CNc3nc(N4CC5CCC(C4)N5)nc4c(C5CC5)cnn34)[nH]c2cc1Cl` [Example 324, 8-cyclopropyl-2-(3,8-diazabicyclo[3.2.1]octan-3-yl)-N-[(5,6-dichloro-1H-benzimidazol-2-yl)methyl]pyrazolo[1,5-a][1,3,5]triazin-4-amine], the IC50 on CDK9/CycT1 is 12300 nM. In addition, in assay [1] (Homo sapiens, MDA-MB-231, 96 h), the IC50 worked out at 1.56 nM. In assay [2], the DC50 was 18 nM and the “(IC50 CDK12 high ATP) to (Degradation DC50 CDK12) ratio” value is recorded as 48.

On to `CN(CC(C)(C)O)c1nc(NCc2nc3c(F)c(F)ccc3[nH]2)n2ncc(Cl)c2n1` [Example 359, 1-[(8-chloro-4-{[(4,5-difluoro-1H-benzimidazol-2-yl)methyl]amino}pyrazolo[1,5-a][1,3,5]triazin-2-yl)(methyl)amino]-2-methylpropan-2-ol], for which the IC50 at CDK9/CycT1 was 7130 nM. Further, the IC50 in assay [1] (Homo sapiens, MDA-MB-231, 96 h) was 15.2 nM. In addition, in assay [2], the DC50 turned out to be 4.33 nM and the “(IC50 CDK12 high ATP) to (Degradation DC50 CDK12) ratio” value stood at 483.

Consider `Brc1cnn2c(NCc3nc4ccccc4[nH]3)nc(N3CC4CCC3CO4)nc12` (centres unmarked) [Example 352, N-[(1H-benzimidazol-2-yl)methyl]-8-bromo-2-(2-oxa-5-azabicyclo[2.2.2]octan-5-yl)pyrazolo[1,5-a][1,3,5]triazin-4-amine], for which the IC50 on CDK9/CycT1 was found to be 16800 nM; in assay [1] (Homo sapiens, MDA-MB-231, 96 h) it was 18.8 nM. Besides, the DC50 in assay [2] worked out at 5.68 nM. In assay [2], the “(IC50 CDK12 high ATP) to (Degradation DC50 CDK12) ratio” value turned out to be 925.

As to `CN(CC(C)(C)O)c1nc(NCc2nc3c(F)c(Cl)ccc3[nH]2)n2ncc(C3CC3)c2n1` [Example 387, 1-[(4-{[(5-chloro-4-fluoro-1H-benzimidazol-2-yl)methyl]amino}-8-cyclopropylpyrazolo[1,5-a][1,3,5]triazin-2-yl)(methyl)amino]-2-methylpropan-2-ol], the IC50 at CDK9/CycT1 stood at 5930 nM. The IC50 in assay [1] (Homo sapiens, MDA-MB-231, 96 h) was 4.57 nM. In assay [2], the DC50 was found to be 3.83 nM and the “(IC50 CDK12 high ATP) to (Degradation DC50 CDK12) ratio” value came out at 61.

On to `Cc1cc2nc(CNc3nc(N4CCOCC4)nc4c(C5CC5)cnn34)[nH]c2cc1C` [Example 320, 8-cyclopropyl-N-[(5,6-dimethyl-1H-benzimidazol-2-yl)methyl]-2-(morpholin-4-yl)pyrazolo[1,5-a][1,3,5]triazin-4-amine], for which the IC50 is > 20000 nM on CDK9/CycT1 and 4.17 nM in assay [1] (Homo sapiens, MDA-MB-231, 96 h). Also, in assay [2], the DC50 came to 4.28 nM. Besides, in assay [2], the “(IC50 CDK12 high ATP) to (Degradation DC50 CDK12) ratio” value turned out to be 130.

Regarding `Fc1cccc2[nH]c(CNc3nc(N4CCOCC4)nc4c(Cl)cnn34)nc12` [Example 361, 8-chloro-N-[(4-fluoro-1H-benzimidazol-2-yl)methyl]-2-(morpholin-4-yl)pyrazolo[1,5-a][1,3,5]triazin-4-amine], the IC50 on CDK9/CycT1 worked out at 13800 nM. For the same compound, the IC50 in assay [1] (Homo sapiens, MDA-MB-231, 96 h) stood at 23.2 nM. Further, in assay [2], the DC50 came out at 6.4 nM and the “(IC50 CDK12 high ATP) to (Degradation DC50 CDK12) ratio” value is 224.

In the case of `CC[C@@H](CO)Nc1nc(NCc2nc3ccccc3[nH]2)n2ncc(Br)c2n1` [Example 367, (2S)-2-[(4-{[(1H-benzimidazol-2-yl)methyl]amino}-8-bromopyrazolo[1,5-a][1,3,5]triazin-2-yl)amino]butan-1-ol], the IC50 was found to be 17600 nM at CDK9/CycT1 and 84.1 nM in assay [1] (Homo sapiens, MDA-MB-231, 96 h). Besides, the DC50 in assay [2] was 12.7 nM. Besides, the “(IC50 CDK12 high ATP) to (Degradation DC50 CDK12) ratio” value in assay [2] is 231.

Take `FC(F)(F)c1ccc2[nH]c(CNc3nc(N4CCOCC4)nc4c(C5CC5)cnn34)nc2c1` [Example 322, 8-cyclopropyl-2-(morpholin-4-yl)-N-{[5-(trifluoromethyl)-1H-benzimidazol-2-yl]methyl}pyrazolo[1,5-a][1,3,5]triazin-4-amine]: the IC50 on CDK9/CycT1 is > 20000 nM. Besides, the IC50 in assay [1] (Homo sapiens, MDA-MB-231, 96 h) is 8.85 nM. Further, in assay [2], the DC50 was 4.57 nM and the “(IC50 CDK12 high ATP) to (Degradation DC50 CDK12) ratio” value turned out to be 266.

In the case of `CN(CC(C)(C)O)c1nc(NCc2nc3cc(OC(F)(F)F)ccc3[nH]2)n2ncc(Br)c2n1` [Example 378, 1-{[8-bromo-4-({[5-(trifluoromethoxy)-1H-benzimidazol-2-yl]methyl}amino)pyrazolo[1,5-a][1,3,5]triazin-2-yl](methyl)amino}-2-methylpropan-2-ol], the IC50 on CDK9/CycT1 was found to be 12700 nM. Further, the IC50 in assay [1] (Homo sapiens, MDA-MB-231, 96 h) stood at 96.4 nM. Also, in assay [2], the DC50 was 29.1 nM and the “(IC50 CDK12 high ATP) to (Degradation DC50 CDK12) ratio” value stood at 15.
